Test results reported in patent US20130035232A1, “INDUCTION AND STABILIZATION OF ENZYMATIC ACTIVITY IN MICROORGANISMS” (GEORGIA STATE UNIVERSITY RESEARCH FOUNDATION, INC., priority 2010, published 2013).

Tests used:
[1] = test system: nitrile hydratase; experiment: Nitrile hydratase production on supplemented medium; type: cell-based; conditions: YEMEA, urea, cobalt, supplement 3.8 mM
Experimental: (§1) The induction of nitrile hydratase production and amidase production in various nitrile hydratase producing microorganisms was evaluated. All strains were grown on YEMEA medium containing 7.5 g/L of urea and 10 ppm cobalt (provided as cobalt chloride) supplemented with asparagine (ASN), glutamine (GLN), or both asparagine and glutamine. The asparagine and glutamine were added at a concentration of 3.8 mM. As a comparative, enzyme production with no supplementation was also tested. Growth temperature was in the range of 26° C. to 30° C.

[2] = test system: amidase; experiment: Amidase induction by inducers (Example 1); type: cell-based, Rhodococcus sp., strain DAP 96253
Experimental: (§2) The induction of nitrile hydratase activity and amidase activity in Rhodococcus sp., strain DAP 96253, was evaluated using multiple types of inducers (1000 ppm). Three different samples were cultured in YEMEA medium containing 10 ppm cobalt and 7.5 g/L urea and supplemented with acrylonitrile, asparagine, or glutamine. The specific nitrile hydratase activity and the specific amidase activity in each sample was evaluated, and the results are provided below in Table 3, with activities provided in units/mg cdw (cell dry weight). One unit of nitrile hydratase activity relates to the ability to convert 1 μmol of acrylonitrile to its corresponding amide per minute, per milligram of cells (dry weight) at a pH of 7.0 and a temperature of 30° C. One unit of amidase activity relates to the ability to convert 1 μmol of acrylamide to its corresponding acid per minute, per milligram of cells (dry weight) pH of 7.0 and a temperature of 30° C.

[3] = test system: asparaginase I; experiment: Asparaginase I production on supplemented medium; type: cell-based; conditions: YEMEA, 7.5 g/L urea, 10 ppm cobalt
Experimental: as §1, with “asparaginase I” for “nitrile hydratase production and amidase”, “production” for “production with no supplementation”, “evaluated with supplementation with acrylonitrile (AN), acrylamide (AMD) or acrylonitrile and acrylamide.” for “tested.”

[4] = test system: amidase; experiment: Amidase production on supplemented medium; type: cell-based; conditions: YEMEA, urea, cobalt, supplement 3.8 mM
Experimental: as §1

[5] = test system: Pseudomonas chloroaphis ATCC 43051; experiment: Growth on supplemented YEMEA (visual grade); type: cell-based; design: key: (−) meaning no detectable growth; (+/−) meaning scant growth; (+) meaning little growth; (++) meaning good growth; (+++) meaning very good growth; (++++) meaning excellent growth; conditions: 30 °C, 7.5 g/L urea, 10 ppm cobalt, supplement 3.8 mM
Experimental: (§3) The relative growth of various nitrile hydratase producing microorganisms was evaluated. All strains were grown on YEMEA medium containing 7.5 g/L of urea and 10 ppm cobalt (provided as cobalt chloride) supplemented with asparagine (ASN), glutamine (GLN), or both asparagine and glutamine. The asparagine and glutamine were added at a concentration of 3.8 mM. Growth temperature was in the range of 26° C. to 30° C. Growth was evaluated by visual inspection and graded on the following scale: (−) meaning no detectable growth; (+/−) meaning scant growth; (+) meaning little growth; (++) meaning good growth; (+++) meaning very good growth; and (++++) meaning excellent growth.

[6] = test system: Pseudomonas chloroaphis ATCC 13985; experiment: Growth on supplemented YEMEA (visual grade); type: cell-based; design: key: (−) meaning no detectable growth; (+/−) meaning scant growth; (+) meaning little growth; (++) meaning good growth; (+++) meaning very good growth; (++++) meaning excellent growth; conditions: 26 °C, 7.5 g/L urea, 10 ppm cobalt, supplement 3.8 mM
Experimental: as §3

[7] = test system: Rhodococcus rhodochrous DAP 96622 ATCC 55898; experiment: Growth on supplemented YEMEA (visual grade); type: cell-based; design: key: (−) meaning no detectable growth; (+/−) meaning scant growth; (+) meaning little growth; (++) meaning good growth; (+++) meaning very good growth; (++++) meaning excellent growth; conditions: 26 °C, 7.5 g/L urea, 10 ppm cobalt, supplement 3.8 mM
Experimental: as §3

[8] = test system: Brevibacterium ketoglutaricum ATCC 21533; experiment: Growth on supplemented YEMEA (visual grade); type: cell-based; design: key: (−) meaning no detectable growth; (+/−) meaning scant growth; (+) meaning little growth; (++) meaning good growth; (+++) meaning very good growth; (++++) meaning excellent growth; conditions: 30 °C, 7.5 g/L urea, 10 ppm cobalt, supplement 3.8 mM
Experimental: as §3

[9] = test system: Rhodococcus sp. DAP 96253 ATCC 55899; experiment: Growth on supplemented YEMEA (visual grade); type: cell-based; design: key: (−) meaning no detectable growth; (+/−) meaning scant growth; (+) meaning little growth; (++) meaning good growth; (+++) meaning very good growth; (++++) meaning excellent growth; conditions: 30 °C, 7.5 g/L urea, 10 ppm cobalt, supplement 3.8 mM
Experimental: as §3

[10] = test system: Rhodococcus erythropolis ATCC 47072; experiment: Growth on supplemented YEMEA (visual grade); type: cell-based; design: key: (−) meaning no detectable growth; (+/−) meaning scant growth; (+) meaning little growth; (++) meaning good growth; (+++) meaning very good growth; (++++) meaning excellent growth; conditions: 26 °C, 7.5 g/L urea, 10 ppm cobalt, supplement 3.8 mM
Experimental: as §3

[11] = test system: nitrile hydratase; experiment: Nitrile hydratase induction by inducers (Example 1); type: cell-based, Rhodococcus sp., strain DAP 96253; conditions: inducer 1000 ppm
Experimental: as §2

[12] = test system: amidase; experiment: 20 liter fermentation with asparagine feed: amidase; type: cell-based, Rhodococcus sp. DAP 96253; conditions: end of 20 liter fermentation; asparagine 0.15M at 1000 μl/min from t=10 hour
Experimental: Rhodococcus sp. DAP 96253 were grown using biphasic medium as the source of inoculum for a 20 liter fermentation. The supplemental addition of medium/carbohydrate (either YEMEA, dextrose or maltose) was made to the modified R2A medium, containing cottonseed hydrolysate substituted for the Proteos Peptone 3 (PP3). Asparagine (0.15M solution) was added at a continuous rate of 1000 μl/min beginning at t=10 hour. At the end of the fermentation run, 159 units per milligram cell dry weight of acrylonitrile specific nitrile hydratase, 22 units of amidase per milligram cell dry weight, and 16 g/l cell packed wet weight were produced.

[13] = Brevibacterium ketoglutaricum ATCC 21533, 30 °C
[14] = Pseudomonas chloroaphis ATCC 13985, 26 °C
[15] = Pseudomonas chloroaphis ATCC 43051, 30 °C
[16] = Rhodococcus erythropolis ATCC 47072, 26 °C
[17] = Rhodococcus rhodochrous DAP 96622 ATCC 55898, 26 °C
[18] = Rhodococcus sp. DAP 96253 ATCC 55899, 30 °C

NC(=O)C[C@H](N)C(=O)O [Asparagine, asparagine]
Nitrile Hydratase Level Based on Growth Medium Supplementation [1, 13]: 30 Units/mg cdw
Nitrile Hydratase Level Based on Growth Medium Supplementation [1, 14]: 14 Units/mg cdw
Nitrile Hydratase Level Based on Growth Medium Supplementation [1, 15]: 28 Units/mg cdw
Nitrile Hydratase Level Based on Growth Medium Supplementation [1, 16]: 48 Units/mg cdw
Nitrile Hydratase Level Based on Growth Medium Supplementation [1, 17]: 158 Units/mg cdw
Nitrile Hydratase Level Based on Growth Medium Supplementation [1, 18]: 155 Units/mg cdw
Amidase Activity ([2]; Rhodococcus sp. DAP 96253, YEMEA, 10 ppm cobalt, 7.5 g/L urea, inducer 1000 ppm): 13.24 Units/mg cdw
amidase activity greater than that resulting from acrylonitrile ([2]; relative to acrylonitrile as inducer, 1000 ppm): approximately 74%
Asparaginase I Level Based on Growth Medium Supplementation [3, 13]: 19.1 Units/mg cdw
Asparaginase I Level Based on Growth Medium Supplementation [3, 14]: 0 Units/mg cdw
Asparaginase I Level Based on Growth Medium Supplementation [3, 15]: 18.4 Units/mg cdw
Asparaginase I Level Based on Growth Medium Supplementation [3, 16]: 1 Units/mg cdw
Asparaginase I Level Based on Growth Medium Supplementation [3, 17]: 12.3 Units/mg cdw
Asparaginase I Level Based on Growth Medium Supplementation [3, 18]: 12.5 Units/mg cdw
Amidase Level Based on Growth Medium Supplementation [4, 13]: 0 Units/mg cdw
Amidase Level Based on Growth Medium Supplementation [4, 14]: 14 Units/mg cdw
Amidase Level Based on Growth Medium Supplementation [4, 15]: 0 Units/mg cdw
Amidase Level Based on Growth Medium Supplementation [4, 16]: 9 Units/mg cdw
Amidase Level Based on Growth Medium Supplementation [4, 17]: 10 Units/mg cdw
Amidase Level Based on Growth Medium Supplementation [4, 18]: 13 Units/mg cdw
Growth [5]: +
Growth [6]: +
Growth [7]: ++++
Growth [8]: +
Growth [9]: ++++
Growth [10]: ++
Nitrile Hydratase Activity ([11]; Rhodococcus sp. DAP 96253, YEMEA, 10 ppm cobalt, 7.5 g/L urea): 170.50 Units/mg cdw
nitrile hydratase induction compared with acrylonitrile [11]: exceeds the ability of acrylonitrile to induce such activity
amidase produced [12]: 22 units per milligram cell dry weight
